Assay results from paper PMC6435784, “Gut Microbiota-Based Pharmacokinetics and the Antidepressant Mechanism of Paeoniflorin” (Frontiers in Pharmacology, 2019).
Like-named read-outs stand apart in the source and are kept apart here.

What was measured:
[1] = Pharmacokinetics of paeoniflorin in pseudo-germ-free (PGF) rats; assay type: in vivo; details: SD, rat, oral paeoniflorin 20 mg/kg, plasma analyte = labelled substance; for AUC(0-t) / Cmax: plasma, po, 20 mg/kg
Protocol: Chromatography separation was performed using an XSS T3 column (3.5 μm, 2.1 mm × 100 mm, Waters, Milford, MA, United States) with the column temperature maintained at 40°C at a flow rate of 0.4 mL/min. […] The gradient was as follows: 25% eluent B for 2 min; 25–85% B from 2 to 4 min; 85–25% B from 4 to 5 min and held at 25% from 5 to 7 min. The autosampler temperature was set to 4°C. Mass spectrometry was carried out using multiple reaction monitoring mode (MRM). […] The nebulizing gas flow rate was 2.8 L/min, the drying gas flow rate was 10 L/min, and the heating gas flow rate was 10 L/min. […] The remaining fourteen SD rats were orally administered saline equivalently. Two days after administration, pharmacokinetic experiments were performed. […] Plasma samples were immediately stored at 4°C until analysis. Statistical analyses were conducted using two-way ANOVA and Student’s t-test with GraphPad Prism Version 5 (GraphPad Software, La Jolla, CA, United States). The data are expressed as the means ± standard deviation. […] DAS 3.0 was used to calculate the plasma pharmacokinetic parameters.

[2] = Excretion of paeoniflorin in rats (urine, feces, bile); assay type: in vivo, rat; details: normal rats, paeoniflorin 20 mg/kg, excreted form = labelled substance, n = 6
[3] = Metabolism of paeoniflorin in the homogenate of the liver tissue in vitro; assay type: in vitro ADME, rat; details: 100 μg/mL paeoniflorin, 37°C, 1 h, compared with intestinal bacteria incubation system, ***P < 0.001
Protocol: Fresh rat liver tissue was cut into small pieces, 0.05 M Tris-HC1 buffer (1:2, pH 7.4) was added. The mixture was homogenized in a mixer and paeoniflorin was added to the liver homogenate at a final concentration of 100 μg/mL. Then, the mixture was incubated at 37°C for 1 h. The above reactions were terminated by the addition of 0.4 mL acetonitrile (1:2). Proteins were precipitated by centrifugation at 10,625 g for 5 min, and 10 μL supernatant was injected into the UPLC system for quantification.

[4] = Pharmacokinetics of paeoniflorin in normal SD rats (plasma, LC-MS/MS); assay type: in vivo, rat; details: for MRT last: read-out: MRT (0-t); for MRT inf: read-out: MRT (0-∞); for half-life: read-out: t1/2z (converted)
Protocol: Chromatography separation was performed using an XSS T3 column (3.5 μm, 2.1 mm × 100 mm, Waters, Milford, MA, United States) with the column temperature maintained at 40°C at a flow rate of 0.4 mL/min. […] The gradient was as follows: 25% eluent B for 2 min; 25–85% B from 2 to 4 min; 85–25% B from 4 to 5 min and held at 25% from 5 to 7 min. The autosampler temperature was set to 4°C. Mass spectrometry was carried out using multiple reaction monitoring mode (MRM). […] The nebulizing gas flow rate was 2.8 L/min, the drying gas flow rate was 10 L/min, and the heating gas flow rate was 10 L/min. […] Plasma samples were immediately stored at 4°C until analysis. The method validation assays were carried out in terms of specificity, linearity, sensitivity, accuracy, precisions, recovery, matrix effect and stability. […] Statistical analyses were conducted using two-way ANOVA and Student’s t-test with GraphPad Prism Version 5 (GraphPad Software, La Jolla, CA, United States). The data are expressed as the means ± standard deviation. […] DAS 3.0 was used to calculate the plasma pharmacokinetic parameters.

[5] = system: depressed rats; test: Chronic unpredictable stress depression model, sucrose preference test; assay type: in vivo, rat; details: after 2 weeks of drug treatment, compared with model group, n = 8
Protocol: Forty rats were randomly divided into the following groups (n = 8): the normal control group, the model control group, the fluoxetine group (10 mg/kg), the paeoniflorin low-dose group (10 mg/kg), and the paeoniflorin high-dose group (20 mg/kg). Except for the blank control group, the groups were randomly exposed to two stressors, including behavioral constraints, ice water swimming, electric shock, cold stimulation, clip tail, wet bedding, light/dark reversed, shaking, foods and water deprivation, continuously for 8 weeks to establish a chronic unpredictable stress model. The sucrose preference test was performed at 0 and 14 days after administration.

[6] = Excretion of paeoniflorin in rats (urine, feces, bile); assay type: in vivo, rat; details: for Excretion rate of paeoniflorin (%), Urine (%), cumulative / Excretion rate of paeoniflorin (%), Feces (%), cumulative: total excretion, oral 20 mg/kg
Protocol: Then, urine samples and feces samples were collected at 0, 6, 12, 24, 48, 72, and 96 h.

[7] = system: gut microbiota; test: Analysis of microbial diversity by 16S rRNA gene sequencing; assay type: in vivo, rat; details: depression model rats, oral 20 mg/kg, 2 weeks of treatment
Protocol: Rat feces of the chronic unpredictable depression model group were collected after 2 weeks of treatment. Three groups, including the normal control group, the model control group, the paeoniflorin treatment group (oral, 20 mg/kg) were selected. Barcoded pyro sequencing analysis was performed on the V3 and V4 regions by 16S rRNA gene sequencing.

[8] = Brain distribution of paeoniflorin and benzoic acid in rats; assay type: in vivo, rat; details: at 2 h after oral administration of paeoniflorin 20 mg/kg
[9] = PGF rats (antibiotic pretreated)
[10] = SD, rat, plasma, intravenous 2 mg/kg, normal rats, n = 5
[11] = SD, rat, plasma, normal rats, oral 20 mg/kg, n = 6
[12] = SD, rat, normal rats, oral paeoniflorin 20 mg/kg, plasma analyte = labelled substance, n = 6
[13] = normal rats, oral 20 mg/kg, n = 6
[14] = normal rats, oral paeoniflorin 20 mg/kg, plasma analyte = labelled substance, n = 6
[15] = normal rats, oral paeoniflorin 20 mg/kg, excreted form = labelled substance, n = 6

C[C@@]12C[C@@]3(O)O[C@@H](O1)[C@]1(COC(=O)c4ccccc4)[C@H]3C[C@@]12O[C@@H]1O[C@H](CO)[C@@H](O)[C@H](O)[C@H]1O [Paeoniflorin]
AUC(0-t) ([1]; PGF rats (antibiotic pretreated), read-out: AUC (0-t)): 296 ± 100 ng·h/mL | Cmax ([1]; PGF rats (antibiotic pretreated), read-out: Cmax): 134 ± 48.5 ng/mL | AUC(0-t) ([1]; PGF rats, Figures 3B, 3C, read-out: AUC(0-t) (unit inferred)): 296 ng·h/mL | Cmax ([1]; PGF rats, Figures 3B, 3C, read-out: Cmax (unit inferred)): 134 ng/mL | AUC(0-inf) [1, 9]: 312 ± 123 ng·h/mL | Tmax [1, 9]: 0.388 ± 0.136 h | half-life ([1]; PGF rats (antibiotic pretreated), read-out: t1/2z (converted)): 2.58 ± 1.61 h | cumulative excretion rate in bile for 60 h [2]: 0.02% | production of benzoic acid in liver tissue homogenate [3]: significantly lower than that in the intestinal bacteria incubation system | AUC(0-t) ([4]; SD, rat, plasma, iv, 2 mg/kg, intravenous 2 mg/kg, normal rats, n = 5, read-out: AUC (0-t)): 1060 ± 326 ng·h/mL | bioavailability ([4]; SD, rat, plasma, oral, rats, oral 20 mg/kg vs intravenous 2 mg/kg, F = AUCT·Div/AUCiv·DT × 100%, read-out: absolute (oral) bioavailability): 2.32% | AUC(0-t) ([4]; SD, rat, plasma, po, 20 mg/kg, normal rats, oral paeoniflorin 20 mg/kg, plasma analyte = labelled substance, Figures 2C, 3B, 3C, read-out: AUC(0-t) (unit inferred)): 245 ng·h/mL | Cmax ([4]; SD, rat, plasma, po, 20 mg/kg, normal rats, oral paeoniflorin 20 mg/kg, plasma analyte = labelled substance, Figures 2C, 3B, 3C, read-out: Cmax (unit inferred)): 119 ng/mL | AUC(0-t) ([4]; SD, rat, plasma, po, 20 mg/kg, normal rats, oral paeoniflorin 20 mg/kg, plasma analyte = labelled substance, n = 6, read-out: AUC (0-t)): 245 ± 72.8 ng·h/mL | Cmax ([4]; SD, rat, plasma, po, 20 mg/kg, normal rats, oral paeoniflorin 20 mg/kg, plasma analyte = labelled substance, n = 6, read-out: Cmax): 119 ± 54.3 ng/mL | AUC(0-inf) [4, 10]: 1070 ± 325 ng·h/mL | clearance ([4]; SD, rat, plasma, intravenous 2 mg/kg, normal rats, n = 5, read-out: CLz (converted)): 33.3 mL/min/kg | MRT last [4, 10]: 0.903 ± 0.122 h | MRT inf [4, 10]: 0.981 ± 0.07 h | Vd ([4]; SD, rat, plasma, intravenous 2 mg/kg, normal rats, n = 5, read-out: Vz): 6.09 ± 3.11 L/kg | half-life [4, 10]: 2.06 ± 0.771 h | MRT last [4, 11]: 2 ± 0.353 h | MRT inf [4, 11]: 2.04 ± 0.368 h | AUC(0-inf) [4, 12]: 246 ± 72.8 ng·h/mL | Tmax [4, 12]: 0.458 ± 0.195 h | half-life [4, 12]: 1.3 ± 0.474 h | CLz [4, 13]: 1473 ± 483.58 mL/min/kg | Vz [4, 13]: 161.261 ± 82.928 L/kg | AUC(0-t) [4, 14]: 245.29 ± 72.811 ng·h/mL | Cmax [4, 14]: 119.36 ± 54.3 ng/mL | absolute (oral) bioavailability ([4]; rats, oral 20 mg/kg vs intravenous 2 mg/kg, F = AUCT·Div/AUCiv·DT × 100%): 2.3% | sucrose preference value ([5]; 10 mg/kg): higher than that in the model group | sucrose preference value ([5]; 20 mg/kg): higher than that in the model group | 96-h cumulative excretion in feces [6, 15]: 0.016% | 96-h cumulative excretion in urine [6, 15]: 1.66% | Excretion rate of paeoniflorin (%), Urine (%), cumulative ([6]; time row 0–6 h): 0.6821 ± 0.3209% | Excretion rate of paeoniflorin (%), Feces (%), cumulative ([6]; time row 6–12 h): 0.0890 ± 0.0568% | Excretion rate of paeoniflorin (%), Urine (%), cumulative ([6]; time row 6–12 h): 1.2565 ± 0.9639% | Excretion rate of paeoniflorin (%), Feces (%), cumulative ([6]; time row 12–24 h): 0.1247 ± 0.0763% | Excretion rate of paeoniflorin (%), Urine (%), cumulative ([6]; time row 12–24 h): 11.4988 ± 6.4969% | Excretion rate of paeoniflorin (%), Feces (%), cumulative ([6]; time row 24–48 h): 0.1479 ± 0.0932% | Excretion rate of paeoniflorin (%), Urine (%), cumulative ([6]; time row 24–48 h): 28.6890 ± 13.81% | Excretion rate of paeoniflorin (%), Feces (%), cumulative ([6]; time row 48–72 h): 0.1630 ± 0.0948% | Excretion rate of paeoniflorin (%), Urine (%), cumulative ([6]; time row 48–72 h): 42.8196 ± 19.2297% | Excretion rate of paeoniflorin (%), Feces (%), cumulative ([6]; time row 72–96 h): 0.1805 ± 0.1055% | Excretion rate of paeoniflorin (%), Urine (%), cumulative ([6]; time row 72–96 h): 43.7953 ± 19.5441% | abundance of Facklamia, Jeotgalicoccus, Ruminiclostridium_5 and Eubacterium_coprostanoligenes_group in feces [7]: decreased | abundance of Lactobacillus, Lachnospira, Eubacterium_ruminantium_group and Roseburia in feces [7]: increased | detection in SD rat brains [8]: not detected
